Reference: US6652861B1, “Anti-HIV and anti-tumor peptides and truncated polypeptides of MAP30” (priority 1999, dated 2003)
“Also recorded” adds a separate entry of the source.

Tests used:
supercoiled HIV-LTR DNA = assay: Topological inactivation: conversion of supercoiled HIV-LTR DNA to relaxed and linear forms; assay type: biochemical; details: supercoiled HIV-LTR into relaxed and linear forms
Procedure: (§1) In FIG. 4A, the inhibition on HIV-integrase was assayed by the 3′-processing reaction of HIV-1 integrase (Lee-Huang et al., 1995). This activity was assayed by specific cleavage of the dinucleotide GT from 5′-[^32P] labeled 21-mer of the HIV-U3-LTR substrate. The effect was measured by the inhibition of the formation of labeled 19-mer product by autoradiography of urea gels. […] In FIG. 4B, topological inactivation was measured by the conversion of supercoiled HIV-LTR DNA (S) into relaxed (R) and linear (L) forms by agarose gel electrophoresis (Huang et al., 1992). Samples that cause topological inactivation show L and R and no S forms.
(§2) Anti-HIV activity was determined by inhibition on the expression of viral core protein p24 expression by RIA (Lee-Huang et al., 1990; Lee-Huang et al., 1991 and Lee-Huang et al., 1999). Anti-tumor activity was determined by the effects of the peptide fragments on the growth of human breast tumor cell line MDA-MB-231 by [^3H] thymidine incorporated (Lee-Huang et al., 1999 and Rybak et al., 1994). HIV-integrase inhibition was assayed by the three specific reactions catalyzed by the integrase, namely, 3′ processing (specific cleavage of the dinucleotide GT from the viral substrate HIV-LTR U3), strand transfer (integration) and disintegration (Lee-Huang et al., 1995). Topological inactivation was measured by the conversion of supercoiled HIV-LTR DNA to relaxed and linear forms (Huang et al., 1992). Ribosome inactivation was determined by the translation of globin message in a rabbit reticulocyte lysate system (Lee-Huang et al., 1990 and Lee-Huang et al., 1991).

HIV-1 = assay: Anti-HIV activity: viral core protein p24 expression in HIV-1 infected H9 T lymphocytes by RIA; assay type: cell-based
Procedure: (§3) In FIG. 3A, anti-HIV activity was assayed by HIV core protein p24 expression in H9 cells (Lee-Huang et al., 1990 and Lee-Huang et al., 1991). […] Anti-tumor activity was determined by in vitro proliferation of human breast tumor MAD-MB-231 cell by [^3H] thymidine incorporation (Lee-Huang et al., 1999) and the average control value was about 1.88×10^5 cpm/ml (FIG. 3B). In FIG. 3C, the cytotoxic effect was measured by the MTS colorimetric assay (Lee-Huang et al., 1999), and in FIG. 3D, the ribosome-inactivation activity was determined by in vitro translation of globin message in a rabbit reticulocyte lysate system (Lee-Huang et al., 1990 and Lee-Huang et al., 1991) and the average control value was about 5.8×10^4 cpm/ml. In each assay, triplicates were carried in two independent experiments, and the results are normalized to values obtained in control assays. Standard deviations are indicated by error bars.
as §2
(§4) To analyze the structural and activity relationship of the anti-HIV proteins, each of the homogeneous proteolytic fragments was assayed for anti-HIV and anti-tumor activities. […] Anti-HIV activity was measured by viral core protein p24 expression in HIV-1 infected H9 T lymphocytes by RIA (Lee-Huang et al., 1990 and Lee-Huang et al., 1991). Anti-tumor activity was measured by proliferation of human breast tumor MDA231 cells (Lee-Huang et al., 1999 and Rybak et al., 1994). […] No significant difference in the anti-HIV and anti-tumor activities was detected between these core fragments.

HIV-1 integrase = target: T1, HIV-1 integrase (Human immunodeficiency virus type 1 group M subtype B, UniProt P04585); assay: HIV-integrase inhibition (3'-processing, strand transfer, disintegration); assay type: biochemical; details: strand transfer and disintegration
T1 construct: assayed by the 3′-processing reaction of HIV-1 integrase
Procedure: as §1, §2

[1] = system: endoproteinase Lys-C and Glu-C (V8); assay: Resistance to limited proteolysis with Lys-C and V8 (SDS-PAGE); details: Lys-C or V8, up to 24 hr
Procedure: MAP30 and GAP31 were subjected to proteolysis with sequencing grade endoproteinase Lys-C and Glu-C (Promega, Madison, Wis.). Lys-C cleaves at the carboxylic side of lysine (Elliott et al., 1986). Glu-C, also known as V8 protease, cleaves specifically at the carboxylic side of glutamic acid in the presence of ammonium ion (Drapeau et al., 1972). In the absence of ammonium ion, Glu-C acts at both aspartic and glutamic acids. The reaction buffers for Lys-C and V8 were 25 mM Tris-HCl, pH 7.8, 1 mM EDTA and 50 mM ammonium bicarbonate, pH 7.8 respectively.
FIGS. 1A-1D show time course SDS-PAGE patterns of Lys-C and V8 digestions of MAP30 and GAP31. Three major fragments were produced in each case. These fragments are designated MLF25, MLF21, MLF0.8 (MAP30 Lys-C Fragments of 25, 21, and 0.8 kDa, FIG. 1A), MVF25, MVF21, MVF0.8 (MAP30 V8 Fragments of 25, 21, and 0.8 kDa, FIG. 1B), GLF26, GLF22, GLF0.6 (GAP31 Lys-C Fragments of 26, 22 and 0.6 kDa, FIG. 1C), and GVF26, GVF22, GVF0.6 (GAP31 V8 Fragments of 26, 22 and 0.6 kDa, FIG. 1D). The smaller peptides are C-terminal fragments produced during proteolysis and they are sensitive to further digestion to short peptides.

[2] = system: human breast tumor cell line MDA-MB-231; assay: Anti-tumor activity: proliferation of MDA-MB-231 cells by [3H] thymidine incorporation; assay type: cell-based; details: MDA231 proliferation
Procedure: as §3, §2, §4

[3] = system: ribosome (rabbit reticulocyte lysate system); assay: Ribosome inactivation: translation of globin message in a rabbit reticulocyte lysate system; assay type: biochemical; details: [3H]-labelled leucine incorporation
Procedure: as §3, §2
The anti-HIV and anti-tumor fragments, MLF25, MLF21, MVF25, MVF21, GLF26, GLF22, GVF26, GVF22 are active in HIV-integrase inhibition as assayed by the 3′-processing (FIG. 4A), strand transfer and disintegration (data not shown) as well as in DNA topological inactivation as assayed by the conversion of supercoiled HIV-LTR into relaxed and linear forms (FIG. 4B). […] Moreover, the C-terminal regions of these proteins are required for N-glycosidase activity, but not for antiviral and anti-tumor activities.

human spermatozoa [4] = assay: Sperm motility by counting; assay type: cell-based
Procedure: Ten semen samples were randomly obtained form ten donors at the Andrology laboratory of the Department of Obstetrics and Gynecology at NYU Medical Center. All specimens were normal semen samples according to WHO guidelines. Each sample consisted of greater than or equal to 20 million motile sperm per milliliter. Sperm count and motility were determined by placing the sperm on a hackler chamber and assessing the samples under a 40× power microscopic field.
Each semen sample was washed two consecutive times in Ham's F-10 media. The washed sperm was spun to a pellet and then re-suspended in media to a concentration of 40 million spermatocytes per milliliter with at least 50% motility. Five microliters of sperm were then suspended in 100 microliters each of PBS, serial 10-fold dilutions of MAP30, or GAP31 or N-9 from 100 to 0.1 microg/ml. N-9 was used as a positive control. Motility and forward progression were assessed at each log concentration of the three compounds. The exposure time ranged form five minute to two hours.

human spermatozoa [5] = assay: Sperm vitality by eosin Y/nigrosine staining; assay type: cell-based; details: vital stain
Procedure: The vitality staining was carried out by adding two drops of eosin Y to one drop of sperm sample and mixing for ten seconds. Two drops of nigrosine were then added to this mixture, and the solutions as mixed for 30 seconds. Slides were made from one drop of each solution mixed with MAP30, or GAP31, or N-9.

HSV-2 = assay: Anti-HSV assay by ELISA in WI-38 cells; assay type: cell-based
Procedure: Anti-HSV activity was assayed with HSV-2 by ELISA (Meridian Diagnostics, Inc., Cincinnati, Ohio) as reported previously (Bourinbaiar et al (1996)). Human embryonic lung fibroblast cell line WI-38, (CCL-75, from ATCC, Rockville, Md.) was used as target cells. HSV-2 (VR-734, strain G) derived from a human with the genital infection was obtained from ATCC, Rockville, Md.

HIV-1(IIIB) = assay: Anti-HIV assay: p24 expression in HIV-infected MT-4 T lymphocytes; assay type: cell-based; details: for EC50 / EC50 anti-HIV, p24 / EC100 anti-HIV, p24 (complete inhibition of HIV-1) / EC100 anti-HIV, p24 (molar): HIV-1 infected MT4 lymphocytes; for concentration of complete inhibition of p24 expression (FIG. 9): p24 ELISA of HIV-infected MT4 culture supernatant
Procedure: Anti-HIV activity was assayed by inhibition on viral core protein, p24 expression in HIV-infected MT-4 T lymphocytes by RIA as described previously (World Health Organization (1992); Bourinbaiar et al (1995)). Briefly, the cells were plated in duplicated in 96-well microtiter plates at 1×10^5 cells/ml in the presence of serial 10-fold dilution of MAP30, or GAP31 or NP-9 at concentrations from […]. The cells were then infected with HIV-1(IIIB) at 100 infectious units per cell. The culture supernatants were collected on day 3 and were used for p24 assay using ELISA kit from Coulter (Hialeah, Fla.). Duplicates of original viral inoculum in the same volume of the medium without the target cells and incubated for 3 days were used as blanks. The blank values were subtracted from wells in which virus was propagated in host MT4 cells with or without drugs.

GLF26: GAP31 Lys-C fragment, 25-26 kDa, residues 11-226 of SEQ ID NO:2
DNA topological inactivation (supercoiled HIV-LTR DNA): active
anti-HIV activity (HIV-1): Most of the anti-HIV and anti-tumor activity
HIV-integrase inhibition (HIV-1 integrase): active
resistance to proteolysis [1]: remained intact even after 24 hr of proteolysis
anti-tumor activity [2]: Most of the anti-HIV and anti-tumor activity
ribosome inactivation [3]: none of these fragments are active

Nonoxynol-9 [Fragment N-9, reference compound]
concentration of complete inhibition of sperm motility (FIG. 7) (human spermatozoa [4]): 100 micrograms/ml
inhibition in motility at 10 μg/ml (human spermatozoa [4]; 10 μg/ml, relative to PBS as 100% motility, mean ± SEM): 43±5%
inhibition of sperm motility at 100 μg/ml (human spermatozoa [4]): totally inhibited
EC50 spermicidal activity (human spermatozoa [4]; 50% inhibition of sperm motility): 20 mg/L
EC100 spermicidal activity (human spermatozoa [4]; 100% inhibition of sperm motility): 100 µg/mL
inhibition on sperm motility at the antiviral EC100 concentrations (human spermatozoa [4]; N-9 at 10 μg/ml and 50 μg/ml): 50 to 80%
sperm vitality after treatment (human spermatozoa [5]): potent spermicidal effect; also recorded: all sperm wimples were dead
EC100 for HSV-2 (complete inhibition) (HSV-2): 50 µg/mL
EC50 (HIV-1(IIIB)): 0.162 µM
EC50 anti-HIV, p24 (HIV-1(IIIB)): 0.1 mg/L
EC100 anti-HIV, p24 (complete inhibition of HIV-1) (HIV-1(IIIB)): 10 µg/mL
EC100 anti-HIV, p24 (molar) (HIV-1(IIIB)): 16.2 µM
concentration of complete inhibition of p24 expression (FIG. 9) (HIV-1(IIIB)): 10 microgram/ml

GAP31: Gelonium Anti-HIV Protein 31 kDa, native full-length, SEQ ID NO:2, from Gelonium multiflorum
inhibition of sperm motility at 100 μg/ml (human spermatozoa [4]): only marginal effect
effect on sperm motility at the antiviral EC100 concentrations (human spermatozoa [4]; 0.01 to 0.1 μg/ml): no significant effect on sperm motility
spermicidal activity / motility inhibition over the entire concentration ranges tested (human spermatozoa [4]; 0.1 to 100 μg/ml): little spermicidal activity; also recorded: little inhibition
sperm vitality after treatment (human spermatozoa [5]): remained vital and impermeable to the pink dye; also recorded: not toxic to the spermatozoa
EC100 for HSV-2 (complete inhibition) (HSV-2): 0.1 µg/mL
resistance to proteolysis [1]: no proteolysis was detected up to 24 hr of treatment even at as much as 5% (W/W) of enzyme
EC50 (HIV-1(IIIB)): 0.0003 µM
EC50 anti-HIV, p24 (HIV-1(IIIB)): 0.001 mg/L
EC100 anti-HIV, p24 (complete inhibition of HIV-1) (HIV-1(IIIB)): 0.1 µg/mL
EC100 anti-HIV, p24 (molar) (HIV-1(IIIB)): 0.0033 µM
fold more potent than N-9 in terms of molar concentration at EC50 (HIV-1(IIIB); anti-HIV p24, MT4): about 540 fold
fold more potent than N-9 in terms of weight per volume (HIV-1(IIIB); anti-HIV p24, MT4): about 100 fold
concentration of complete inhibition of p24 expression (FIG. 9) (HIV-1(IIIB)): 0.1 microgram/ml
